Here are results for 19 compounds from patent publication US20090074791A1, “Phenylisoquinoline and Phenylquinazoline Derivatives” (priority 2007, published 2009).

pIC50: −log10 of the molar value.

In this test the target is T1, human PCaR (parathyroid Calcium receptor) (Homo sapiens, UniProt P41180).
T1 construct: expressed in transfected cells; host or cells: CCL39 fibroblasts (stably transfected)
T1 sequence (P41180 20-1078): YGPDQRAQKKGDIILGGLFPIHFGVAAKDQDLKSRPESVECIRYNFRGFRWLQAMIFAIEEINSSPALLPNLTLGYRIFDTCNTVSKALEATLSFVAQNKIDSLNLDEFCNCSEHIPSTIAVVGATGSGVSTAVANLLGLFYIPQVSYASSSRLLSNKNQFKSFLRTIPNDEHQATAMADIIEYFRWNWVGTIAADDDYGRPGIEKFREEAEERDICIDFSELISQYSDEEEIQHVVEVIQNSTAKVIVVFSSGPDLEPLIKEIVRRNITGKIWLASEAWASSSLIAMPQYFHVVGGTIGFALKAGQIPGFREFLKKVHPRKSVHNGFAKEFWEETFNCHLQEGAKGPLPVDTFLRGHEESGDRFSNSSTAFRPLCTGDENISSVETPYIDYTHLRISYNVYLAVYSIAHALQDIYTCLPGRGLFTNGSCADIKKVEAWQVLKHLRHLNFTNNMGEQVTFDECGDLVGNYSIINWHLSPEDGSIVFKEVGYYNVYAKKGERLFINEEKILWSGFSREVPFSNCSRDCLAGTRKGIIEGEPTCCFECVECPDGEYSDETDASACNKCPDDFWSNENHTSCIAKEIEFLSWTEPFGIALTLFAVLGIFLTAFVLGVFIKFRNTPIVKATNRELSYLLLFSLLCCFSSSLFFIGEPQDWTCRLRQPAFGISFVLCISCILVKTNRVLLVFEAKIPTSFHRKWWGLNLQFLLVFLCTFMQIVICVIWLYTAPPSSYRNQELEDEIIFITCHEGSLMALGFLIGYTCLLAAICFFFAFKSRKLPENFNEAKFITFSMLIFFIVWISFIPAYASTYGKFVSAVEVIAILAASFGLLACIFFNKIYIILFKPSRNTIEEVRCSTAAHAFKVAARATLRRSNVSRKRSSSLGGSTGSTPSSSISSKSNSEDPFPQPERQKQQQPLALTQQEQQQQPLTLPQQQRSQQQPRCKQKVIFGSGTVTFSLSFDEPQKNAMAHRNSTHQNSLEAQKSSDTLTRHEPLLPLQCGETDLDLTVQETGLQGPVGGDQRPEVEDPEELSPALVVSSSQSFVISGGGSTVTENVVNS
In words: Intracellular free calcium assay: inhibition of calcium transients stimulated by extracellular calcium (antagonism at PCaR). The format is cell-based. To be noted: CCL39 fibroblasts stably transfected with human PCaR; Fluo-3 AM; stimulated with calcium (2.5 mM final). The method, then:
A suitable and well validated assay to measure the anabolic effect on bone formation is the assay to detect intracellular free calcium, i.e. the method to determine antagonism at the parathyroid Calcium receptor (PCaR) consists in measuring the inhibition of intracellular calcium transients stimulated by extracellular calcium:
CCL39 fibroblasts stably transfected with human PCaR are seeded at 40'000 cells/well into 96-well Viewplates and incubated for 24 hours. Medium is then removed and replaced with fresh medium containing 2 μM Fluo-3 AM (Molecular Probes, Leiden, The Netherlands), In routine experiments, cells are incubated at 37° C., 5% CO2 for 1 h. Afterwards, plates are washed twice with mHBS and wells are refilled with 100 μl mHBS containing the test compounds. Incubation is continued at room temperature for 15 minutes. To record changes of intracellular free calcium, plates are transferred to fluorescence-imaging plate reader (Molecular Devices, Sunnyvale, Calif., USA). A baseline consisting in 5 measurements of 0.4 seconds each (laser excitation 488 nm) is recorded. Cells are then stimulated with calcium (2.5 mM final), and fluorescence changes recorded over a period of 3 minutes.

For `C#CCOc1ccc2nc(-c3nc4cc(C(=O)CCC)c(C)cc4n3C)nc(-c3ccc(C(C)C)cc3)c2c1` [Example 1, 1-{2-[4-(4-Isopropyl-phenyl)-6-prop-2-ynyloxy-quinazolin-2-yl]-1,6-dimethyl-1H-benzoimidazol-5-yl}-butan-1-one], the pIC50 is 9.59.
The figure for `C#CCOc1ccc2nc(-c3nc4ccc(C#N)cc4[nH]3)nc(-c3ccc(C(C)C)cc3)c2c1` [Example 3, 2-[4-(4-Isopropyl-phenyl)-6-prop-2-ynyloxy-quinazolin-2-yl]-3H-benzoimidazole-5-carbonitrile] is 9.03; for `C#CCOc1ccc2nc(-c3nc4cc(F)ccc4n3C)nc(-c3ccc(C(C)C)cc3)c2c1` [Example 5, 2-(5-Fluoro-1-methyl-1H-benzoimidazol-2-yl)-4-(4-isopropyl-phenyl)-6-prop-2-ynyloxy-quinazoline] it is 8.96; for `C#CCOc1ccc2nc(-c3nc4cc(OC)ccc4n3C)nc(-c3ccc(C(C)C)cc3)c2c1` [Example 6, 4-(4-Isopropyl-phenyl)-2-(5-methoxy-1-methyl-1H-benzoimidazol-2-yl)-6-prop-2-ynyloxy-quinazoline] it is 9.15.
The same measure for `C#CCOc1ccc2nc(-c3nc4ccccc4n3C)nc(-c3ccc(C(C)C)cc3)c2c1` [Example 8, 4-(4-Isopropyl-phenyl)-2-(1-methyl-1H-benzoimidazol-2-yl)-6-prop-2-ynyloxy-quinazoline]: 8.82; for `C#CCOc1ccc2nc(-c3nc4ccc(C(F)(F)F)cc4[nH]3)nc(-c3ccc(C(C)C)cc3)c2c1` [Example 14, 4-(4-Isopropyl-phenyl)-6-prop-2-ynyloxy-2-(6-trifluoromethyl-1H-benzoimidazol-2-yl)-quinazoline]: 9.02; for `C#CCOc1ccc2nc(-c3nc4ccc(OC)cc4[nH]3)nc(-c3ccc(C(C)C)cc3)c2c1` [Example 15, 4-(4-Isopropyl-phenyl)-2-(6-methoxy-1H-benzoimidazol-2-yl)-6-prop-2-ynyloxy-quinazoline]: 9.02.
In the case of `C#CCOc1ccc2nc(-c3nc4ccc(Cl)cc4[nH]3)nc(-c3ccc(C(C)C)cc3)c2c1` [Example 16, 2-(6-Chloro-1H-benzoimidazol-2-yl)-4-(4-isopropyl-phenyl)-6-prop-2-ynyloxy-quinazoline], the pIC50 was 9.28.
The same measure for `C#CCOc1ccc2nc(-c3nc4ccc(C(=O)OCC)cc4[nH]3)nc(-c3ccc(C(C)C)cc3)c2c1` [Example 17, 2-[4-(4-Isopropyl-phenyl)-6-prop-2-ynyloxy-quinazolin-2-yl]-3H-benzoimidazole-5-carboxylic acid ethyl ester]: 9.13; for `C#CCOc1ccc2nc(-c3nc4ccc(C(=O)c5ccccc5)cc4[nH]3)nc(-c3ccc(C(C)C)cc3)c2c1` [Example 18, {2-[4-(4-isopropyl-phenyl)-6-prop-2-ynyloxy-quinazolin-2-yl]-3H-benzoimidazol-5-yl}phenyl-methanone]: 9.17.
With `C#CCOc1ccc2nc(-c3nc4ccc(Br)cc4[nH]3)nc(-c3ccc(C(C)C)cc3)c2c1` [Example 19, 2-(6-Bromo-1H-benzoimidazol-2-yl)-4-(4-isopropyl-phenyl)-6-prop-2-ynyloxy-quinazoline], the pIC50 is 9.06.
For the compound `C#CCOc1ccc2nc(-c3nc4ccc(F)cc4[nH]3)nc(-c3ccc(C(C)C)cc3)c2c1` [Example 20, 2-(6-Fluoro-1H-benzoimidazol-2-yl)-4-(4-isopropyl-phenyl)-6-prop-2-ynyloxy-quinazoline], the pIC50 is 8.80.
Consider `C#CCOc1ccc2nc(-c3nc4cc(F)c(Cl)cc4[nH]3)nc(-c3ccc(C(C)C)cc3)c2c1` [Example 21, 2-(6-Chloro-5-fluoro-1H-benzoimidazol-2-yl)-4-(4-isopropyl-phenyl)-6-prop-2-ynyloxy-quinazoline], for which the pIC50 was 8.85.
The same measure for `C#CCOc1ccc2nc(-c3nc4cc(C(F)(F)F)ccc4n3C)nc(-c3ccc(C(C)C)cc3)c2c1` [Example 22, 4-(4-Isopropyl-phenyl)-2-(1-methyl-5-trifluoromethyl-1H-benzoimidazol-2-yl)-6-prop-2-ynyloxy-quinazoline]: 9.20.
The same measure for `C#CCOc1ccc2nc(-c3nc4cc(C(=O)OCC)ccc4n3C)nc(-c3ccc(C(C)C)cc3)c2c1` [Example 23, 2-[4-(4-Isopropyl-phenyl)-6-prop-2-ynyloxy-quinazolin-2-yl]-1-methyl-1H-benzoimidazole-5-carboxylic acid ethyl ester]: 9.40; for `C#CCOc1ccc2nc(-c3nc4cc(C(C)=O)ccc4n3C)nc(-c3ccc(C(C)C)cc3)c2c1` [Example 24, 1-{2-[4-(4-Isopropyl-phenyl)-6-prop-2-ynyloxy-quinazolin-2-yl]-1-methyl-1H-benzoimidazol-5-yl}ethanone]: 9.00.
The figure for `C#CCOc1ccc2nc(-c3nc4cc(F)c(F)cc4[nH]3)nc(-c3ccc(C(C)C)cc3)c2c1` [Example 25, 2-(5,6-Difluoro-1H-benzoimidazol-2-yl)-4-(4-isopropyl-phenyl)-6-prop-2-ynyloxy-quinazoline] is 9.36; for `C#CCOc1ccc2nc(-c3nc4cccc(C(C)=O)c4[nH]3)nc(-c3ccc(C(C)C)cc3)c2c1` [Example 26, 1-{2-[4-(4-Isopropyl-phenyl)-6-prop-2-ynyloxy-quinazolin-2-yl]-3H-benzoimidazol-4-yl}-ethanone] it is 9.23; for `C#CCOc1ccc2nc(-c3nc4ccc(C(=O)OCC)cc4n3C)nc(-c3ccc(C(C)C)cc3)c2c1` [Example 36, 2-[4-(4-Isopropyl-phenyl)-6-prop-2-ynyloxy-quinazolin-2-yl]-3-methyl-3H-benzoimidazole-5-carboxylic acid ethyl ester] it is 9.19.
